{
  "source": "patent US9221876B2",
  "about": "“Methods for treating kidney disease with fragments of ApoB-100” (Cedars-Sinai Medical Center, priority 2011, dated 2015)",
  "type_in_all_cases": "in vivo, apoE (−/−) male mice",
  "key": {"[1]": {"test_system": "Angiotensin II type 1 receptor (AT1R)", "assay": "AT1R expression in aorta, Western blot with densitometric analysis, after p210 immunization and AngII infusion", "conditions": "100 μg p210/cBSA/Alum s.c. at 7, 10, 12 weeks of age; AngII 1000 ng/Kg/min by osmotic pump for 4 weeks; vs cBSA/Alum and PBS; N=6 each", "from_the_text": "N=6 in each group. p210: immunized with p210/cBSA/Alum+AngII; cBSA: immunized with cBSA/Alum+AngII; PBS: immunized with PBS+AngII.\n(§1) The inventors assessed the effect of p210 immunization on AngII-induced renal inflammatory responses in apoE (−/−) male mice. For the experiments described herein, native p210 peptide (KTTKQ SFDLS VKAQY KKNKH) was conjugated to cationic bovine serum albumin (cBSA) as carrier. Alum was used as an adjuvant. At 7, 10, and 12 weeks of age, male apoE (−/−) mice were subcutaneously injected with 100 μg of p210/cBSA/Alum. As immunization controls, 100 μg of cBSA/Alum, or PBS were injected. At 10 weeks of age after first immunization booster, 1000 ng/Kg/min of AngII was delivered by subcutaneously implanted osmotic pump for 4 weeks (FIG. 1A)."}, "IL-6": {"test_system": "IL-6", "assay": "IL-6 mRNA expression in kidney, quantitative PCR", "conditions": "p210/cBSA/Alum+AngII vs cBSA/Alum+AngII and PBS+AngII; N=8 each; p<0.05", "method": "as §1\n(§2) At euthanasia, kidney was harvested for quantitative PCR analysis or histological analysis. Data are presented as mean±SEM. Data were analyzed by ANOVA following post-hoc test for multiple group comparison."}, "PAI-1": {"test_system": "PAI-1", "assay": "PAI-1 mRNA expression in kidney", "conditions": "p210/cBSA/Alum+AngII vs cBSA/Alum+AngII and PBS+AngII; N=5 each; p<0.05", "from_the_text": "(§3) (Left): PAI-1. N=5 each, (Right): TGF-β. N=9 each. *p<0.05 vs. p210. p210: immunized with p210/cBSA/Alum+AngII; cBSA: immunized with cBSA/Alum+AngII; PBS: immunized with PBS+AngII.\nas §1, §2\n(§4) These anti-hypertensive and renal protective effects are associated with significant reduction of inflammatory cytokines and chemokine gene expression, ROS production mediated by NADPH oxidase, and profibrotic gene expression in kidney. […]"}, "TGF-β": {"test_system": "TGF-β", "assay": "TGF-β mRNA expression in kidney", "conditions": "p210/cBSA/Alum+AngII vs cBSA/Alum+AngII and PBS+AngII; N=9 each; p<0.05", "from_the_text": "as §3, §1, §2, §4"}, "[2]": {"test_system": "NOX1, a component of NADPH oxidase", "assay": "NOX1 expression in kidney", "conditions": "p210/cBSA/Alum+AngII vs cBSA/Alum+AngII and PBS+AngII; N=8 each; p<0.05", "from_the_text": "as §3, §1, §2, §4"}, "[3]": {"assay": "Serum creatinine level (indicator of renal function), creatinine assay kit, AngII-induced renal damage", "method": "as §1\nSerum creatinine (Cr.) (an indicator of renal function) level at 14 weeks of age was assessed by commercially available creatinine assay kit following the manufacture's instruction. […] N: p210=12, cBSA=11, PBS=9."}, "MCP-1": {"test_system": "MCP-1", "assay": "MCP-1 mRNA expression in kidney, quantitative PCR", "conditions": "p210/cBSA/Alum+AngII vs cBSA/Alum+AngII and PBS+AngII; N=8 each; p<0.05", "method": "as §1, §2"}, "TNF-α": {"test_system": "TNF-α", "assay": "TNF-α mRNA expression in kidney, quantitative PCR", "conditions": "p210/cBSA/Alum+AngII vs cBSA/Alum+AngII and PBS+AngII; N=10 each; p<0.05", "method": "as §1, §2"}, "[4]": {"test_system": "glomerular ROS production", "assay": "Glomerular ROS (superoxide) production, in situ dihydroethidium (DHE) labeling of frozen kidney sections", "conditions": "p210/cBSA/Alum+AngII vs cBSA/Alum+AngII and PBS+AngII; N=4 each; p<0.05", "from_the_text": "(A) Representative figure of in situ DHE labeling. (B) Densitometric analysis of DHE fluorescence. *p<0.05 vs. p210. N=4 each. p210: immunized with p210/cBSA/Alum+AngII; cBSA: immunized with cBSA/Alum+AngII; PBS: immunized with PBS+AngII.\nas §1\nSuperoxide production in kidney was measured by in situ dihydroethidium (DHE) methods with freshly cut frozen sections."}},
  "note": "“Also recorded” adds a separate entry of the source. No end group written: not given here.",
  "data": [
    {"substance": "KTTKQ SFDLS VKAQY KKNKH (KTTKQSFDLSVKAQYKKNKH; also: conjugated to cationic BSA carrier) [Peptide P210, amino acids 3136-3155 of human ApoB-100; tested conjugated to cationic bovine serum albumin (cBSA) as carrier, Alum as adjuvant]", "values": [
      {"measurement": "expression of Angiotensin II type 1 receptor (AT1R) in aorta", "setting": "[1]", "value": "significantly decreased"},
      {"measurement": "IL-6 mRNA expression in kidney", "setting": "IL-6", "value": "down-regulated; also recorded: significantly reduced"},
      {"measurement": "PAI-1 mRNA expression in kidney", "setting": "PAI-1", "value": "significantly downregulated; also recorded: significantly reduced"},
      {"measurement": "TGF-β mRNA expression in kidney", "setting": "TGF-β", "value": "significantly downregulated; also recorded: significantly reduced"},
      {"measurement": "NOX1 expression in kidney", "setting": "[2]", "value": "significantly reduced"},
      {"measurement": "Serum Cr.", "setting": "[3]; at 14 weeks of age, 100 μg p210/cBSA/Alum s.c. at 7, 10, 12 weeks, AngII infusion 4 weeks, mean±SEM, N p210=12", "value": "0.6 ± 0.1", "unit": "mg/dL"},
      {"measurement": "Serum creatinine level vs cBSA and PBS groups", "setting": "[3]; at 14 weeks of age, p<0.05", "value": "significantly lower"},
      {"measurement": "AngII-induced renal damage", "setting": "[3]; p210 immunization, AngII infusion 4 weeks", "value": "protected against AngII-induced renal damage; also recorded: significantly attenuated"},
      {"measurement": "MCP-1 mRNA expression in kidney", "setting": "MCP-1", "value": "down-regulated; also recorded: significantly reduced"},
      {"measurement": "TNF-α mRNA expression in kidney", "setting": "TNF-α", "value": "down-regulated; also recorded: significantly reduced"},
      {"measurement": "glomerular ROS production (DHE fluorescence)", "setting": "[4]", "value": "significantly reduced"}
    ]}
  ]
}
